Among the data in US9505749B2, “Quinazolinone compounds and derivatives thereof” (AMGEN INC., priority 2012, dated 2016) are IC50 and EC50 values, retold here.

The target in experiment [1] is 6×HIS-tankyrase1 (1091-1325) (Homo sapiens (Human), UniProt O95271). As to the kind of experiment: Tankyrase 1 biochemical assay (AlphaLisa, PARsylation). The conditions noted are these: 400 nM NAD, 60 minutes at RT; read-out: TNKS1 IC50.
The target of a further experiment is PARP1 (Homo sapiens (Human), UniProt P09874). As to the kind of experiment: PARP1 biochemical assay (Trevigen kit). An excerpt:
PARP1 biochemical assay was purchased as a kit from Trevigen (cat.#4676-096-K) and used per manufacturers recommendations.

In experiment [2] the target is 6×HIS-tankyrase 2 (946-1162) (Homo sapiens (Human), UniProt Q9H2K2). The experiment in a line: Tankyrase 2 biochemical assay (AlphaLisa, PARsylation). The following applies: 250 nM NAD; read-out: TNKS2 IC50.
6×HIS-tankyrase 2 (946-1162), sequence (Q9H2K2 946-1162): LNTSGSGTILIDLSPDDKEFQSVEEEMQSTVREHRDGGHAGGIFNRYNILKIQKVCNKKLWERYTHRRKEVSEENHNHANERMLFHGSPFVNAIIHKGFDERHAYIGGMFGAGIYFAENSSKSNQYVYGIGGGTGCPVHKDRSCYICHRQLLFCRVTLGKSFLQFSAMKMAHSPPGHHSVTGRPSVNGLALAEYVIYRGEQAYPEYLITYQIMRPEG
The subject of experiment [3] is total β-catenin in SW480 colorectal cells. As to the kind of experiment: Total β-catenin MSD 96-well plate assay for SW480 cells. The following applies: Homo sapiens, SW480, read-out: SW480-Total beta-catenin (TBC) IC50 IP.
Experiment [4] relates to Axin2 accumulation in SW480 cells. As to the kind of experiment: Axin2 384 immunofluorescence assay. Type of experiment: cell-based. The following applies: Homo sapiens; SW480 cells, 24 hours; read-out: Axin2 384 IF EC50.
In a further experiment the target is PARP2 (Homo sapiens (Human), UniProt Q9UGN5). As to the kind of experiment: PARP2 biochemical assay (BPS kit).
PARP2, sequence (Q9UGN5 whole entry): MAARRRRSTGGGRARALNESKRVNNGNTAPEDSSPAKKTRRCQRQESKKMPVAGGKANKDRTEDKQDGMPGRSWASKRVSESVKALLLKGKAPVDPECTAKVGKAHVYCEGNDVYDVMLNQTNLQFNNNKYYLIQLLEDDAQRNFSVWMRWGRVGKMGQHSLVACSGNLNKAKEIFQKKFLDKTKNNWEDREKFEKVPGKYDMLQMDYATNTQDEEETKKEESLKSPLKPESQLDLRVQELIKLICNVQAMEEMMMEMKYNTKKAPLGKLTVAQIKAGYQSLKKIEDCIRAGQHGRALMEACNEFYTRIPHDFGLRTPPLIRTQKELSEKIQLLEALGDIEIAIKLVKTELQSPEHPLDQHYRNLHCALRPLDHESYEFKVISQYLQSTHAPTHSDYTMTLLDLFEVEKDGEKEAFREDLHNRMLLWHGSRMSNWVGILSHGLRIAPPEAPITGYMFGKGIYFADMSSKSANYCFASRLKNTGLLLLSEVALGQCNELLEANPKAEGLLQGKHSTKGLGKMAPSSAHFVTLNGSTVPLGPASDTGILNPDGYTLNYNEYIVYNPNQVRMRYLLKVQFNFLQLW

6×HIS-tankyrase1 (1091-1325), sequence (O95271 1091-1325): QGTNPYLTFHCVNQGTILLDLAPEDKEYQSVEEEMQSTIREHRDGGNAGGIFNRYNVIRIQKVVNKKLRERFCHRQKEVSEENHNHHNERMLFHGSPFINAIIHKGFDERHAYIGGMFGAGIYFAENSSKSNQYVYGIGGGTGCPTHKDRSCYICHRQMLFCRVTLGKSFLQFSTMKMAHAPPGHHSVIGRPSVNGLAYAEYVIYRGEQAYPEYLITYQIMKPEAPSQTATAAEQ
PARP1, sequence (P09874 whole entry): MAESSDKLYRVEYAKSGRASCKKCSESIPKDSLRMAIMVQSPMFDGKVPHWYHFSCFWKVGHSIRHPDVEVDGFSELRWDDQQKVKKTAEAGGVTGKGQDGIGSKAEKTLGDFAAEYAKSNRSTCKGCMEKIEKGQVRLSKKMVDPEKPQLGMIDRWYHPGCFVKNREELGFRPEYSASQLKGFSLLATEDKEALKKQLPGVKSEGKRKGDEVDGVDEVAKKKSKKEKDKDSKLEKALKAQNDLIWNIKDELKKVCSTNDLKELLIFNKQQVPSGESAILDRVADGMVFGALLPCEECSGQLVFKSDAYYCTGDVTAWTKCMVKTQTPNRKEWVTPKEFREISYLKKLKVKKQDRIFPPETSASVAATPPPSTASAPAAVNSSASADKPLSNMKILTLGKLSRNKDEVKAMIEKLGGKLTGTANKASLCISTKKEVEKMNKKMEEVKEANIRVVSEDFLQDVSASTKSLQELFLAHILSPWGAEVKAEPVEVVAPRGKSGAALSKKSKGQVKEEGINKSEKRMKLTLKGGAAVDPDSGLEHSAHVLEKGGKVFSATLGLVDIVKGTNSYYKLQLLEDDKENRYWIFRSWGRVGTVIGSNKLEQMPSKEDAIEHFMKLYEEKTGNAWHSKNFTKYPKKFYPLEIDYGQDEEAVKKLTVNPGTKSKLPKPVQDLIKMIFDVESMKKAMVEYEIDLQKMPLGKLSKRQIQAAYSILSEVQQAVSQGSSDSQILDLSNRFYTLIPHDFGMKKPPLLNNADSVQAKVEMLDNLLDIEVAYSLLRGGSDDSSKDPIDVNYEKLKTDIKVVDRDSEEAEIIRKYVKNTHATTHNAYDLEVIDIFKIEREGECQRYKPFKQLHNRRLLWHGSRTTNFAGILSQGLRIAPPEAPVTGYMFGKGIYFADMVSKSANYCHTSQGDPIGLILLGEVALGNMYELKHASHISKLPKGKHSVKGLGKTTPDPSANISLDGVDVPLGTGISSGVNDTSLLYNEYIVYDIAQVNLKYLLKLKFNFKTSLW

In the case of `O=C(CCCSc1nc2ccccc2c(=O)[nH]1)N1CCC(c2nnc(-c3ccccc3)o2)CC1` [Example 111, 2-((4-oxo-4-(4-(5-phenyl-1,3,4-oxadiazol-2-yl)piperidin-1-yl)butyl)thio)quinazolin-4(3H)-one], the concentration for half-maximal inhibition (IC50) is 88.4 nM in experiment [1]; 7.63 µM on PARP1; 29.5 nM in experiment [2]; > 10000 nM in experiment [3]; 4670 nM at PARP2. Besides, in experiment [4], the EC50 was 2950 nM.
For the compound `O=C(CCCc1nc2ccccc2c(=O)[nH]1)N1CCC(n2c(=O)[nH]c3c(F)cccc32)CC1` [Example 67, 2-(4-(4-(4-fluoro-2-oxo-2,3-dihydro-1H-benzimidazol-1-yl)-1-piperidinyl)-4-oxobutyl)-4(3H)-quinazolinone], the IC50 in experiment [1] was 3.93 nM; against PARP1 it was 1.28 µM; in experiment [2] it was 1.68 nM; in experiment [3], 980 nM; against PARP2, 681 nM. In experiment [4], the EC50 came out at 552 nM.
For `O=C(CSc1nc2ccccc2c(=O)[nH]1)N[C@H]1CC[C@H](n2c(=O)[nH]c3ccc(Cl)cc32)CC1` [Example 102, N-((1r,4r)-4-(6-chloro-2-oxo-2,3-dihydro-1H-benzo[d]imidazol-1-yl)cyclohexyl)-2-((4-oxo-3,4-dihydroquinazolin-2-yl)thio)acetamide], the half-inhibitory concentration (IC50) in experiment [1] was 0.118 nM; against PARP1 it was > 85 µM; in experiment [2] it was 0.458 nM; in experiment [3], 55.4 nM; against PARP2 it was 1650 nM. Further, in experiment [4], the EC50 was determined as 38.1 nM.
Consider `O=C(CCCc1nc2ccccc2c(=O)[nH]1)N1CCC(c2nnc(-c3ccccc3)o2)CC1` [Example 42, 2-(4-oxo-4-(4-(5-phenyl-1,3,4-oxadiazol-2-yl)-1-piperidinyl)butyl)-4(3H)-quinazolinone], for which the concentration for half-maximal inhibition (IC50) is 28.2 nM in experiment [1]; 7.47 µM against PARP1; 8.26 nM in experiment [2]; 132 nM in experiment [3]; 825 nM at PARP2. Further, in experiment [4], the EC50 is 843 nM.
In the case of `O=C(CCCc1nc2ccccc2c(=O)[nH]1)N1CCC(c2nnc(-c3ccc(F)c(Cl)c3)o2)CC1` [Example 25, 2-(4-(4-(5-(3-chloro-4-fluorophenyl)-1,3,4-oxadiazol-2-yl)piperidin-1-yl)-4-oxobutyl)quinazolin-4(3H)-one], the half-inhibitory concentration (IC50) stood at 9.61 nM in experiment [1]; 2.3 µM against PARP1; 3.91 nM in experiment [2]; 224 nM in experiment [3]; 1360 nM against PARP2. Further, the EC50 in experiment [4] turned out to be 240 nM.
For the compound `O=C(CCCc1nc2ccccc2c(=O)[nH]1)N1CCC(c2nnc(-c3ccncc3)o2)CC1` [Example 19, 2-(4-oxo-4-(4-(5-(4-pyridinyl)-1,3,4-oxadiazol-2-yl)-1-piperidinyl)butyl)-4(3H)-quinazolinone], the IC50 in experiment [1] stood at 15 nM; against PARP1 it was 4.92 µM; in experiment [2] it was 4.86 nM; in experiment [3] it was 248 nM; at PARP2, 1120 nM. Further, the EC50 in experiment [4] was 291 nM.
For `Cc1ccc(-c2nnc(C3CCN(C(=O)CCCc4nc5ccccc5c(=O)[nH]4)CC3)o2)cc1` [Example 23, 2-(4-oxo-4-(4-(5-(p-tolyl)-1,3,4-oxadiazol-2-yl)piperidin-1-yl)butyl)quinazolin-4(3H)-one], the IC50 in experiment [1] was found to be 656 nM; on PARP1, 3.3 µM; in experiment [2] it was 6.31 nM; in experiment [3], 152 nM; against PARP2, 455 nM. In addition, the EC50 in experiment [4] worked out at 601 nM.
In the case of `O=C(CCCc1nc2ccccc2c(=O)[nH]1)N1CCC(n2c(=O)[nH]c3cc(C(F)(F)F)ccc32)CC1` [Example 52, 2-(4-oxo-4-(4-(2-oxo-5-(trifluoromethyl)-2,3-dihydro-1H-benzimidazol-1-yl)-1-piperidinyl)butyl)-4(3H)-quinazolinone trifluoroacetic acid], the 50% inhibitory concentration (IC50) amounted to 1.3 nM in experiment [1]; 3.83 µM against PARP1; 0.193 nM in experiment [2]; 25.2 nM in experiment [3]; 1020 nM on PARP2. Also, the EC50 in experiment [4] was 94.7 nM.
Regarding `O=C(CCCc1nc2ccccc2c(=O)[nH]1)N1CCC(n2c(=O)[nH]c3ncccc32)CC1` [Example 47, 2-(4-oxo-4-(4-(2-oxo-2,3-dihydro-1H-imidazo[4,5-b]pyridin-1-yl)-1-piperidinyl)butyl)-4(3H)-quinazolinone trifluoroacetic acid], the IC50 in experiment [1] was found to be 3.97 nM; at PARP1, 2.44 µM; in experiment [2], 1.18 nM; in experiment [3], 233 nM; at PARP2 it was 1590 nM. The 50% effective concentration (EC50) in experiment [4] turned out to be 1270 nM.
As for `O=C(CCCc1nc2ccccc2c(=O)[nH]1)N1CCC(c2nnc(COc3ccc(Cl)cc3)o2)CC1` [Example 17, 2-(4-(4-(5-((4-chlorophenoxy)methyl)-1,3,4-oxadiazol-2-yl)-1-piperidinyl)-4-oxobutyl)-4(3H)-quinazolinone], the IC50 was determined as 646 nM in experiment [1]; 3.79 µM against PARP1; 152 nM in experiment [2]; 2190 nM in experiment [3]; 916 nM at PARP2. In addition, the EC50 in experiment [4] was found to be 6390 nM.
For `O=C(CCCc1nc2ccccc2c(=O)[nH]1)N1CCC(n2c(=O)sc3ccccc32)CC1` [Example 50, 2-(4-oxo-4-(4-(2-oxo-1,3-benzothiazol-3(2H)-yl)-1-piperidinyl)butyl)-4(3H)-quinazolinone trifluoroacetic acid], the IC50 in experiment [1] worked out at 6.49 nM; against PARP1, 10.7 µM; in experiment [2], 1.81 nM; in experiment [3] it was 256 nM; on PARP2 it was 748 nM. The concentration giving a half-maximal response (EC50) in experiment [4] came to 1550 nM.
As for `O=C(CCCc1nc2ccccc2c(=O)[nH]1)N[C@H]1CC[C@H](c2nnc(-c3cccc(F)c3)o2)CC1` [Example 31, N-(trans-4-(5-(3-fluorophenyl)-1,3,4-oxadiazol-2-yl)cyclohexyl)-4-(4-oxo-3,4-dihydro-2-quinazolinyl)butanamide], the IC50 was determined as 0.469 nM in experiment [1]; 1.05 µM against PARP1; 0.237 nM in experiment [2]; 24.8 nM in experiment [3]; 1150 nM against PARP2. Further, the EC50 in experiment [4] turned out to be 30.9 nM.
For the compound `COc1ccc(-c2nnc(C3CCN(C(=O)CCCc4nc5ccccc5c(=O)[nH]4)CC3)o2)cc1` [Example 15, 2-(4-(4-(5-(4-methoxyphenyl)-1,3,4-oxadiazol-2-yl)-1-piperidinyl)-4-oxobutyl)-4(3H)-quinazolinone], the IC50 in experiment [1] is 15 nM; against PARP1, 3.17 µM; in experiment [2], 3.35 nM; in experiment [3], 86.9 nM; at PARP2 it was 1200 nM. In addition, in experiment [4], the EC50 stood at 126 nM.
For `O=C(CCCc1nc2ccccc2c(=O)[nH]1)N[C@H]1CC[C@H](c2nnc(-c3ccncc3)o2)CC1` [Example 33, 4-(4-oxo-3,4-dihydro-2-quinazolinyl)-N-(trans-4-(5-(4-pyridinyl)-1,3,4-oxadiazol-2-yl)cyclohexyl)butanamide], the IC50 is 0.453 nM in experiment [1]; 2.84 µM at PARP1; 0.341 nM in experiment [2]; 34.8 nM in experiment [3]; 1140 nM on PARP2. In addition, the EC50 in experiment [4] was 25.7 nM.
